Literature values, collected in patent US20050175694A1, “Long acting compositions comprising zidovudine and lamivudine” (priority 2002, published 2005).

Settings: in vivo

| SMILES | oral bioavailability | serum half-life |
| --- | --- | --- |
| Nc1ccn([C@@H]2CS[C@H](CO)O2)c(=O)n1 [lamivudine] | 86% | – |
| Cc1cn([C@H]2C[C@H](N=[N+]=[N-])[C@@H](CO)O2)c(=O)[nH]c1=O [zidovudine] | 60% | 1.1 h |
